Laboratory results: patent US20240019450A1, “FLUORESCENT SENSORS” (THE UNIVERSITY OF SYDNEY, priority 2020, published 2024)

test: not given

Row | melting point [°C] | SMILES
1 | 220 | S=C(S)n1ncc2ccccc21 [formula X, 1H-indazole-1-carbodithioic acid]
2 | 100 | S=C(S)C1=C(NCc2ccccc2)CCC1 [formula XIV, 2-(benzylamino)cyclopent-1-enecarbodithioic acid]

test: Fluorescence spectroscopy of the sensors (excitation and emission); format: physicochemical
Procedure: Fluorescence spectroscopy was performed on a bench top Perkin-Elmer Enspire Multimode Plate Reader. […] 5 replicates of each sensor-metal or sensor-complex solution were used. […] Fluorescence responses to analytes were determined using integrated emission intensity, and for each sensor a control well containing no analyte was included to normalise the response for analysis.
The sensors were tested using the procedure described in Example 4, and the obtained data was analysed using LDA. […] Sensors S1-S9 were used in subsequent experiments.

Row | SMILES | excitation wavelength (maximum excitation wavelength of the sensor) [nm]
3 | Cc1cc(=O)oc2c(CN(CC(=O)O)CC(=O)O)c(O)ccc12 [S5] | 380
4 | O=S(=O)([O-])c1cc(O)c(N=Nc2c(O)ccc3ccccc23)c2ccccc12.[Na+] [S9] | 280

Continued, values first:

Row | excitation wavelength (maximum excitation wavelength of the sensor) [nm] | SMILES
5 | 480 | O=C1c2ccccc2C2(c3ccc(O)cc3Oc3cc(O)ccc32)N1NC(=S)S [S1]
6 | 445 | CCN(CC)c1ccc2c(c1)Oc1cc(N(CC)CC)ccc1C21c2ccccc2C(=O)N1OCc1cn(Cc2ccccc2)nn1 [S7]
7 | 280 | O=[N+]([O-])c1ccc2c(/N=N/c3ccc4ccccc4c3O)c(O)cc(S(=O)(=O)[O-])c2c1.[Na+] [S8]
